Laboratory results taken from patent US10173991B2, “Sulfone amide linked benzothiazole inhibitors of endothelial lipase” (BRISTOL-MYERS SQUIBB COMPANY, priority 2014, dated 2019).

What follows are compounds tested against Endothelial lipase (EL) (Homo sapiens (Human), UniProt Q9Y5X9) (assay: Endothelial lipase (EL) enzymatic assay with fluorescent substrate A10070 in DMPG vesicles).
Format: biochemical
Description: Endothelial lipase (EL) and hepatic lipase (HL) activities were measured using a fluorescent substrate, A10070, (Invitrogen, CA) doped into an artificial vesicle containing DMPG (Avanti Polar Lipids) as the excipient. Vesicles were prepared by combining 571 μL of 29 mM DMPG in a 1:1 mixture of MeOH and CHCl3 with 2000 μL of 1 mM A10070 in a 1:1 mixture of MeOH and CHCl3. The mixture was dried under nitrogen in multiple vials then resuspended in 20 mL total volume of 50 mM HEPES pH 8.0 buffer containing 50 mM NaCl and 0.2 mM EDTA. The sample was allowed to sit at room temperature for 15 min and then was sonicated 3×4 mins on ice with a Branson Sonicator using duty cycle 1. This preparation provides vesicles with a mole fraction of 0.11 for the FRET substrate.
The enzymatic assay was measured using 384-well white Optiplates. Each well contained 20 μL of assay buffer (50 mM HEPES pH 8.0, 50 mM NaCl and 1 mM CaCl2) and 0.25 μL of a DMSO solution containing a compound of interest. EL or HL (10 μL) was added and allowed to incubate with the compound for 30 min at 37° C. The source of EL was conditioned media obtained from HT-1080 cells that were transformed using RAGE technology (Athersys) to overexpress endogenous EL, and HL was partially purified from conditioned media obtained from COS cells overexpressing HL. The reaction was started by the addition of 10 μL of a 1:10 dilution of vesicles. The final total reaction volume was […]. The reaction rates were measured on a Gemini plate reader with an excitation wavelength of 490 nm and an emission wavelength of 530 nm. Readings were taken over a period of 60 minutes, and the slope between 300 and 900 secs of the readout was used to calculate the rate of the reaction.

Chain of Endothelial lipase (EL) (Q9Y5X9 21-500): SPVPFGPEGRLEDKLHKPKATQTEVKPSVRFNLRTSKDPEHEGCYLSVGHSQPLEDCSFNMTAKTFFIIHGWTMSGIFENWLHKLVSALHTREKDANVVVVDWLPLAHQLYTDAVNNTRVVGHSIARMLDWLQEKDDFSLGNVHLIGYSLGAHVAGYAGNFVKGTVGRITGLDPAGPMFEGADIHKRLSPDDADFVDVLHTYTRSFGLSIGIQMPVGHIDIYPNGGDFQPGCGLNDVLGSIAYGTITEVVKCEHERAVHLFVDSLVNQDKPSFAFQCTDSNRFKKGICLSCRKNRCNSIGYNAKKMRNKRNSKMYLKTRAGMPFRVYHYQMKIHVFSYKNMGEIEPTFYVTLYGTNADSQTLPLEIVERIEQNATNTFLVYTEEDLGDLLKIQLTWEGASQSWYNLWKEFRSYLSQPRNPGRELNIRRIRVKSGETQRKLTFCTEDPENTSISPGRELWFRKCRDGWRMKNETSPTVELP

IC50 [nM] | Structure (SMILES)
7 | COC(=O)Nc1ccc(-c2ccc3nc(C(C(=O)NCC(=O)NC4CC4)S(=O)(=O)CCC(F)(F)F)sc3c2)c(C)c1 (stereo not shown) [Example 26]
58 | COCCS(=O)(=O)C(C(=O)NCC(=O)NC1CC1)c1nc2ccc(-c3ccc(N(C)C(C)=O)cc3)cc2s1 (stereo not shown) [Example 27, N-[(cyclopropyl-carbamoyl)methyl]-2-(2-methoxy-ethanesulfonyl)-2-{6-[4-(N-methylacetamido)phenyl]-1,3-benzothiazol-2-yl}acetamide]
54 | CC(=O)N(C)c1ccc(-c2ccc3nc(C(C(=O)NCC(=O)NC4CC4)S(=O)(=O)CCC(F)(F)F)sc3c2)cc1 (stereo not shown) [Example 28, N-[(cyclopropyl-carbamoyl)methyl]-2-{6-[4-(N-methylacetamido)phenyl]-1,3-benzothiazol-2-yl}-2-(3,3,3-trifluoropropane-sulfonyl) acetamide]
20 | COC(=O)Nc1ccc(-c2ccc3nc(C(C(=O)NCC(=O)NC4CC4)S(C)(=O)=O)sc3c2)c(C)c1 (stereo not shown) [Example 29, methyl N-{4-[2-({[(cyclopropyl-carbamoyl)methyl]carbamoyl} (methanesulfonyl)methyl)-1,3-benzothiazol-6-yl]-3-methylphenyl} carbamate]
21 | COCCS(=O)(=O)C(C(=O)NCC(=O)NC1CC1)c1nc2ccc(-c3ccc(NC(=O)OC)cc3C)cc2s1 (stereo not shown) [Example 30, methyl N-{4-[2-({[(cyclopropy-lcarbamoyl)methyl]carbamoyl}(2-methoxyethane-sulfonyl)methyl)-1,3-benzothiazol-6-yl]-3-methylphenyl} carbamate]
11 | CC(=O)N(C)c1ccc(-c2cc3sc(C(C(=O)NCC(=O)NC4CC4)S(C)(=O)=O)nc3cc2F)cc1 (stereo not shown) [Example 31, N-[(cyclopropyl-carbamoyl)methyl]-2-{5-fluoro-6-[4-(N-methylacetamido)phenyl]-1,3-benzothiazol-2-yl}-2-methanesulfonyl-acetamide]
6 | COCCS(=O)(=O)C(C(=O)NCC(=O)NC1CC1)c1nc2cc(F)c(-c3ccc(N(C)C(=O)OC)cc3)cc2s1 (stereo not shown) [Example 32, methyl N-{4-[2-({[(cyclopropyl-carbamoyl)methyl]carbamoyl}(2-methoxyethane-sulfonyl)methyl)-5-fluoro-1,3-benzothiazol-6-yl]phenyl}-N-methylcarbamate]
4 | COC(=O)N(C)c1ccc(-c2cc3sc(C(C(=O)NCC(=O)NC4CC4)S(=O)(=O)CCC(F)(F)F)nc3cc2F)cc1 (stereo not shown) [Example 33, methyl N-{4-[2-({[(cyclopropyl-carbamoyl)methyl]carbamoyl}(3,3,3-trifluoropropane-sulfonyl)methyl)-5-fluoro-1,3-benzothiazol-6-yl]phenyl}-N-methylcarbamate]
4 | COC(=O)Nc1ccc(-c2cc3sc(C(C(=O)NCC(=O)NC4CC4)S(C)(=O)=O)nc3cc2F)c(C)c1 (stereo not shown) [Example 34, methyl N-{4-[2-({[(cyclopropyl-carbamoyl)methyl]carbamoyl} (methanesulfonyl)methyl)-5-fluoro-1,3-benzothiazol-6-yl]-3-methylphenyl} carbamate]
8 | COCCS(=O)(=O)C(C(=O)NCC(=O)NC1CC1)c1nc2cc(F)c(-c3ccc(NC(=O)OC)cc3C)cc2s1 (stereo not shown) [Example 35, methyl N-{4-[2-({[(cyclopropyl-carbamoyl)methyl]carbamoyl}(2-methoxyethane-sulfonyl)methyl)-5-fluoro-1,3-benzothiazol-6-yl]-3-methylphenyl} carbamate]
11 | COCCOC(=O)Nc1ccc(-c2cc3sc(C(C(=O)NCC(=O)NC4CC4)S(C)(=O)=O)nc3cc2F)cn1 (stereo not shown) [Example 36, 2-methoxyethyl N-{5-[2-({[(cyclopropyl-carbamoyl)methyl]carbamoyl} (methanesulfonyl)methyl)-5-fluoro-1,3-benzothiazol-6-yl]pyridin-2-yl}carbamate]
5 | COCCOC(=O)Nc1ccc(-c2cc3sc(C(C(=O)NCC(=O)NC4CC4)S(=O)(=O)CCOC)nc3cc2F)cn1 (stereo not shown) [Example 37, 2-methoxyethyl N-{5-[2-({[(cyclopropyl-carbamoyl)methyl]carbamoyl}(2-methoxyethane-sulfonyl)methyl)-5-fluoro-1,3-benzothiazol-6-yl]pyridin-2-yl} carbamate]
2 | CC(C)S(=O)(=O)C(C(=O)NCC(=O)NC1CC1)c1nc2cc(F)c(-c3ccc(NC(=O)OCc4ccccc4)cc3)cc2s1 (stereo not shown) [Example 38, benzyl N-{4-[2-({[(cyclopropyl-carbamoyl)methyl]carbamoyl} (propane-2-sulfonyl)methyl)-5-fluoro-1,3-benzothiazol-6-yl]phenyl} carbamate]
3 | CS(=O)(=O)C(C(=O)NCC(=O)NC1CC1)c1nc2cc(F)c(-c3cccc(Cl)c3)cc2s1 (stereo not shown) [Example 39, 2-[6-(3-chlorophenyl)-5-fluoro-1,3-benzothiazol-2-yl]-N-[(cyclopropyl-carbamoyl)methyl]-2-methanesulfonyl-acetamide]
3 | COCCS(=O)(=O)C(C(=O)NCC(=O)NC1CC1)c1nc2cc(F)c(-c3cccc(Cl)c3)cc2s1 (stereo not shown) [Example 40, 2-[6-(3-chlorophenyl)-5-fluoro-1,3-benzothiazol-2-yl]-N-[(cyclopropyl-carbamoyl)methyl]-2-(2-methoxyethane-sulfonyl)acetamide]
5 | CS(=O)(=O)C(C(=O)NCC(=O)NC1CC1)c1nc2cc(F)c(-c3ccc(C(=O)NCCC#N)cc3)cc2s1 (stereo not shown) [Example 41, N-(2-cyanoethyl)-4-[2-({[(cyclopropyl-carbamoyl)methyl]carbamoyl} (methanesulfonyl)methyl)-5-fluoro-1,3-benzothiazol-6-yl]benzamide]
7 | COCCS(=O)(=O)C(C(=O)NCC(=O)NC1CC1)c1nc2cc(F)c(-c3ccc(C(=O)NCCC#N)cc3)cc2s1 (stereo not shown) [Example 42, N-(2-cyanoethyl)-4-[2-({[(cyclopropyl-carbamoyl)methyl]carbamoyl}(2-methoxyethane-sulfonyl)methyl)-5-fluoro-1,3-benzothiazol-6-yl] benzamide]
37 | CS(=O)(=O)Nc1ccc(-c2cc3sc(C(C(=O)NCC(=O)NC4CC4)S(=O)(=O)CCC(F)(F)F)nc3cc2F)cc1 (stereo not shown) [Example 43, N-[(cyclopropyl-carbamoyl)methyl]-2-[5-fluoro-6-(4-methanesulfon-amidophenyl)-1,3-benzothiazol-2-yl]-2-(3,3,3-trifluoropropane-sulfonyl) acetamide]
3 | N#CCCNC(=O)c1ccc(-c2cc3sc(C(C(=O)NCC(=O)NC4CC4)S(=O)(=O)CCC(F)(F)F)nc3cc2F)cc1 (stereo not shown) [Example 44, N-(2-cyanoethyl)-4-[2-({[(cyclopropyl-carbamoyl)methyl]carbamoyl}(3,3,3-trifluoropropane-sulfonyl)methyl)-5-fluoro-1,3-benzothiazol-6-yl] benzamide]
3 | CCS(=O)(=O)C(C(=O)NCC(=O)NC1CC1)c1nc2cc(F)c(-c3ccc(NC(=O)OCc4ccccc4)cc3)cc2s1 (stereo not shown) [Example 45, benzyl N-{4-[2-({[(cyclopropyl-carbamoyl)methyl]carbamoyl} (ethanesulfonyl)methyl)-5-fluoro-1,3-benzothiazol-6-yl]phenyl} carbamate]
2 | O=C(CNC(=O)C(c1nc2cc(F)c(-c3ccc(NC(=O)OCc4ccccc4)cc3)cc2s1)S(=O)(=O)CCCC(F)(F)F)NC1CC1 (stereo not shown) [Example 46, benzyl N-{4-[2-({[(cyclopropyl-carbamoyl)methyl]carbamoyl}(4,4,4-trifluorobutane-sulfonyl)methyl)-5-fluoro-1,3-benzothiazol-6-yl]phenyl}carbamate]
2 | N#CCS(=O)(=O)C(C(=O)NCC(=O)NC1CC1)c1nc2cc(F)c(-c3ccc(NC(=O)OCc4ccccc4)cc3)cc2s1 (stereo not shown) [Example 47, benzyl N-(4-{2-[(cyanomethane-sulfonyl) ({[(cyclopropyl-carbamoyl)methyl]carbamoyl}methyl]-5-fluoro-1,3-benzothiazol-6-yl}phenyl) carbamate]
1 | CCCCCS(=O)(=O)C(C(=O)NCC(=O)NC1CC1)c1nc2cc(F)c(-c3ccc(NC(=O)OCc4ccccc4)cc3)cc2s1 (stereo not shown) [Example 48, benzyl N-{4-[2-({[(cyclopropyl-carbamoyl)methyl]carbamoyl} (pentane-1-sulfonyl)methyl)-5-fluoro-1,3-benzothiazol-6-yl]phenyl}carbamate]
3 | CC(C)CS(=O)(=O)C(C(=O)NCC(=O)NC1CC1)c1nc2cc(F)c(-c3ccc(NC(=O)OCc4ccccc4)cc3)cc2s1 (stereo not shown) [Example 49, benzyl N-{4-[2-({[(cyclopropyl-carbamoyl)methyl]carbamoyl}(2-methylpropane-sulfonyl)methyl)-5-fluoro-1,3-benzothiazol-6-yl]phenyl}carbamate]
3 | O=C(CNC(=O)C(c1nc2cc(F)c(-c3ccc(NC(=O)OCc4ccccc4)cc3)cc2s1)S(=O)(=O)C1CC1)NC1CC1 (stereo not shown) [Example 50, benzyl N-(4-{2-[(cyclopropane-sulfonyl) ({[(cyclopropyl-carbamoyl)methyl]carbamoyl}methyl]-5-fluoro-1,3-benzothiazol-6-yl}phenyl) carbamate]
